Results reported in patent US20040259823A1, “Cationic amphiphiles as transfection vehicles” (priority 2001, published 2004).

Legend:
Assay type in all cases: cell-based
COS-7 and HepG2 cells [1] = test: Transfection with pCMV GFP plasmid, % GFP positive cells by FACS (cell line not given); conditions: cell line and helper lipid not given
Procedure: (§1) Transfections were carried out following standard protocols as is described in EP 0755924. In numerous publications variations of transfection protocols are given. A person acquainted with the field of non-viral transfections, in particular transfections using cationic amphiphiles will be able to use the cationic amphiphiles of the invention in transfection methods known per se. In standard experiments COS-7 cells are transfected with plasmid DNA containing the β-galactosidase reporter gene. Upon successful transfection the cell produces the enzyme β-galactosidase whose activity can be easily measured. Other plasmids comprising alternative reporter genes such as the gene encoding Green Fluorescent Protein or Chloroamphenicol Acetyl Transferase are suited as well. For analyzing stable transfection a plasmid containing the neomycin resistance gene can be used. Toxicity of the cationic amphiphiles towards the cells can be monitored qualitatively and quantitatively by visual inspection of the cells and by a protein determination.
A solution of cationic amphiphile in a 50/50 molar ratio with DOPE, DOPC or cholesterol in chloroform was dried under a stream of nitrogen. The residual solvent was removed under vacuum. The lipid film was hydrated in water at room temperature and sonicated to clarity in a bath sonicator immediately before use.
A 4.7 kb pair plasmid containing the GFP reporter gene under control of the cytomegalovirus immediate early gene promoter/enhancer (pCMV GFP).DNA was isolated from E. coli using a Qiagen Plasmid Kit (QIAGEN Inc, USA). The plasmid concentration was determined by measuring the absoption at 260 nm using the relation 1.0 OD=50 μg/ml. The OD260/OD280 value was 1.95.
(§2) COS-7 and HepG2 cells were cultured in Dulbecco's Modified Eagle Medium (DMEM Gibco The Netherlands) containing 7% of fetal calf serum, 2 mM L-Glutamine, 100 units/ml of penicilin and […] of streptomycin at 37° C. in CO2/air (1:19).
(§3) Cells (1×10^5 cells/well) were seeded in 12-well plates and were allowed to grow overnight.
(§4) The complex of cationic amphiphile/helper lipid (1:1) with pCMV GFP was prepared at the charge ratio 2.5:1 (15 nmol lipid and 1 μg DNA), in 100 μl 10 mM HEPES (pH=7.4, 150 mM NaCl). After 10-15 min incubation at room temperature, the resulting complex was diluted in 1 ml medium (DMEM) and 0.5 ml of the mixture was added to the cells and incubated for 4 h at 37° C. The transfection efficiency expressed as a percentage of GFP positive cells was measured by FACS (Fluorescence Activated Cell Soorting) 48 hours after the transfection.
(§5) Control wells underwent identical steps except that no cationic amphiphile was added.

COS-7 and HepG2 cells [2] = test: Toxicity towards the cells by protein determination versus control wells; conditions: protein determination compared with the reference value of control wells
Procedure: as §1, with “determination. Control wells underwent identical steps except that no cationic amphiphile was added.” for “determination.”

COS-7 and HepG2 cells [3] = test: Cell survival after transfection (cell line not given); conditions: cell line and helper lipid not given
Procedure: as §1, §2, §3, §4, §5

## CCCCCCCC/C=C\CCCCCCCCCc1cc[n+](CCCCCCCC/C=C\CCCCCCCC)cc1.[Cl-] [SF6, 1-(9′-cis-octadecenyl)-4-(10″-cis-nonadecenyl) pyridinium Chloride]
COS-7 and HepG2 cells [1]; Table 1
  % TE: 14.44%
COS-7 and HepG2 cells [1]; Table 2
  % TE: 11.48%
COS-7 and HepG2 cells [1]; Table 7
  % TE: 30.91%
COS-7 and HepG2 cells [1]; Table 8
  % TE: 9.96%
COS-7 and HepG2 cells [1]; Table 9
  % TE: 3.92%
COS-7 and HepG2 cells [1]; Table 10
  % TE: 9.14%
COS-7 and HepG2 cells [2]
  toxicity towards the cells: marginal toxicity
COS-7 and HepG2 cells [3]; Table 1
  % surv cells: 75.3%
COS-7 and HepG2 cells [3]; Table 2
  % surv cells: 47.3%
COS-7 and HepG2 cells [3]; Table 7
  % surv cells: 84.06%
COS-7 and HepG2 cells [3]; Table 8
  % surv cells: 57.21%
COS-7 and HepG2 cells [3]; Table 9
  % surv cells: 70.01%
COS-7 and HepG2 cells [3]; Table 10
  % surv cells: 61.57%
